Experimental data reported in US9221791B2, “Metalloenzyme inhibitor compounds” (Viamet Pharmaceuticals, Inc., priority 2011, dated 2015).
Values after ≈ are worked out from the molar mass of the structure shown.

Legend:
CYP3A4 = CYP3A4 (Homo sapiens (Human), UniProt P08684); assay: Inhibition of Liver Cytochrome P450 Enzymes (pooled human liver microsomes), CYP3A4; format: in vitro ADME
Method: B. Inhibition of Liver Cytochrome P450 Enzymes
Solutions of each test compound were separately prepared at concentrations of 20000, 6000, 2000, 600, 200, and 60 μM by serial dilution with DMSO:MeCN (50:50 v/v). The individual test compound solutions were then diluted 20-fold with DMSO:MeCN:deionized water (5:5:180 v/v/v) to concentrations of 1000, 300, 100, 30, 10, and 3 μM. Mixtures of isozyme inhibitors (sulfaphenazole, tranylcypromine, and ketoconazole as specific inhibitors of isozymes 2C9, 2C19, and 3A4, respectively) were prepared containing each inhibitor at concentrations of 6000, 2000, 600, 200, 60, 20, 6, and 2 μM by serial dilution with DMSO:CH3CN (50:50 v/v). […]
Pooled human liver microsome suspension (20 mg/mL) was diluted with phosphate buffer to obtain a 5 mg/mL suspension. […] Separate stock solutions of each substrate were prepared in DMSO:MeCN (50:50 v/v), mixed, and diluted in phosphate buffer to obtain a single solution containing each substrate at five times its experimentally determined Km concentration. […]
Substrate solution and microsome suspension were combined in a 1:1 volume ratio, mixed, and distributed to reaction wells of a PCR plate. […] A portion of the supernatant was analyzed by gradient reverse-phase HPLC with detection by electrospray ionization triple quadrupole mass spectrometry in the positive ion mode. […]

C. albicans = assay: Minimum Inhibitory Concentration (MIC) (C. albicans), CLSI M27-A2; format: cell-based; conditions: Candida albicans; approximately 48 h at 35±1° C.; about 50% growth reduction
Method: A. Minimum Inhibitory Concentration (MIC) (C. albicans) Compounds of the present disclosure were assessed for their ability to inhibit the growth of common strains of fungus, C. albicans using a standardized procedure (CLSI M27-A2). Stock solutions of the test compounds and standards were prepared in DMSO at 1,600 μg/mL (C. albicans). Eleven, serial, one-half dilutions of compounds were prepared in 96-well plates in RPMI+MOPS. The assay concentration ranges were 8-0.001 μg/mL (C. albicans). Cell suspensions of C. albicans were prepared and added to each well at concentrations of approximately 3.7×10^3 colony-forming-units per milliliter (cfu/mL). All testing was in duplicate. The inoculated plates were incubated for approximately 48 h at 35±1° C. At the completion of incubation the wells of each plate were evaluated visually for the presence of fungal growth. […] For QC purposes C. krusei isolate ATCC 6258 (4.0×10^3 cfu/mL) was included in the VOR assay.

[1] = test system: Septoria tritici (ATCC 26517); assay: Minimum Inhibitory Concentration (MIC) (Septoria tritici), CLSI-based microdilution; format: cell-based; conditions: S. tritici ATCC 26517, 22° C. for seven days, 50% reduction in growth; for MIC: Zymoseptoria tritici, ATCC26517, 168 h, read-out: Septoria Rating (MIC)
Method in brief: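 S. tritici (ATCC 26517) tested by CLSI-style broth microdilution for filamentous fungi in RPMI-1640/MOPS, 2-fold series 16–0.016 μg/mL (11 concentrations, 2% DMSO before inoculum), duplicate rows. Inoculum ~5×10^4 cfu/mL; plates incubated 7 days at 22 °C in the dark, static; growth scored on a rating scale.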

[2] = test system: Puccinia recondita tritici = Puccinia triticina; assay: Fungicidal activity vs. leaf rust on wheat plants; format: in vivo; conditions: wheat (variety Yuma) sprayed at 50 ppm, inoculated on the following day, evaluated 7-9 days later; read-out: Puccinia Rating (% Disease Control @ 50 ppm)
Source text: D. Evaluation of Fungicidal Activity Vs. Leaf Rust (Causal Agent Puccinia recondita tritici=Puccinia triticina; Bayer Code PUCCRT). […] Each pot contained 3-8 seedlings. These plants were sprayed until wet with the formulated test compounds. The compounds were formulated at 50 ppm in 10 vol. % acetone plus 90 vol. % Triton X water (deionized water 99.99 wt %+0.01 wt % Triton X100), giving a “formulated test compound.” Formulated test compounds were applied to plants using a turn table sprayer fitted with two opposing air atomization nozzles which delivered approximately 1500 L/ha of spray volume. On the following day, the leaves were inoculated with an aqueous spore suspension of Puccinia recondita tritici and the plants were kept in high humidity overnight to permit spores to germinate and infect the leaf. The plants were then transferred to a greenhouse until disease developed on untreated control plants. Disease severity was evaluated 7-9 days later, depending on the speed of disease development. In each case of Table 3, the Puccinia rating scale is as follows: […]

CYP3A4, sequence (P08684 whole entry): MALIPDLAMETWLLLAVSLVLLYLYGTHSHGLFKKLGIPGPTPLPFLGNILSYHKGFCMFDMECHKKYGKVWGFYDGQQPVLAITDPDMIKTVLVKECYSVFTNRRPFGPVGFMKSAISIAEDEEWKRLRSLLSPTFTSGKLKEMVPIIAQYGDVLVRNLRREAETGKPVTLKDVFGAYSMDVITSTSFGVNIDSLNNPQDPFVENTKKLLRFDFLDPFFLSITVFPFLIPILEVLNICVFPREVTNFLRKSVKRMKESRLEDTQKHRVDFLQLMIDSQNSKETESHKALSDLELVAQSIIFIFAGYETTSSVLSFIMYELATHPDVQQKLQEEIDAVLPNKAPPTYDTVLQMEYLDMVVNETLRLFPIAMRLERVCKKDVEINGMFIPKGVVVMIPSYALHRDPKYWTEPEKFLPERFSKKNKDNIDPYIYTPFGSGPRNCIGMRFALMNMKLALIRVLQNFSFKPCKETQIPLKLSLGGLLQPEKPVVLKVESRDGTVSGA

Row | Compound | IC50 (CYP3A4) [µM] | MIC (C. albicans) [µg/mL] | Septoria Rating (MIC) [1] | pest or weed control at 50 ppm [2] [%] | MIC [1] [µg/mL]
1 | OC(Cn1cnnn1)(c1ccc(F)cc1F)C(F)(F)c1ccc(-c2ccc(F)nc2)cn1 (stereo not drawn) [Compound 31, 2-(2,4-Difluorophenyl)-1,1-difluoro-1-(6′-fluoro-[3,3′-bipyridin]-6-yl)-3-(1H-tetrazol-1-yl)propan-2-ol] | 33 | 0.062 (≈ 0.138 µM) | C (>1.5-4) |  | 
2 | OC(Cn1cnnn1)(c1ccc(F)cc1F)C(F)(F)c1ccc(-c2ccc(Cl)nc2)cn1 (stereo not drawn) [Compound 30, 1-(6′-Chloro-[3,3′-bipyridin]-6-yl)-2-(2,4-difluorophenyl)-1,1-difluoro-3-(1H-tetrazol-1-yl)propan-2-ol] |  | 0.062 (≈ 0.133 µM) |  | 80 to 100 | 
3 | OC(Cn1cnnn1)(c1ccc(F)cc1F)C(F)(F)c1ccc(Cc2ccccc2)cn1 (stereo not drawn) [Compound 75, 1-(5-Benzylpyridin-2-yl)-2-(2,4-difluorophenyl)-1,1-difluoro-3-(1H-tetrazol-1-yl)propan-2-ol] |  |  |  | 80 to 100 | ≤ 0.5
4 | CCOC/C=C/c1ccc(C(F)(F)C(O)(Cn2cnnn2)c2ccc(F)cc2F)nc1 (stereo not drawn) [Compound 51, (E)-2-(2,4-Difluorophenyl)-1-(5-(3-ethoxyprop-1-en-1-yl)pyridin-2-yl)-1,1-difluoro-3-(1H-tetrazol-1-yl)propan-2-ol] |  |  |  | < 40 | ≤ 0.5
5 | Cc1ccc(C(F)(F)C(O)(Cn2cnnn2)c2ccc(F)cc2F)nc1 (stereo not drawn) [Compound 25, 2-(2,4-Difluorophenyl)-1,1-difluoro-1-(5-methylpyridin-2-yl)-3-(1H-tetrazol-1-yl)propan-2-ol] |  |  |  | 80 to 100 | 1.5 (≈ 4.08 µM)
6 | O=C(c1ccc(F)cc1)c1ccc(C(F)(F)C(O)(Cn2cnnn2)c2ccc(F)cc2F)nc1 (stereo not drawn) [Compound 69, (6-(2-(2,4-Difluorophenyl)-1,1-difluoro-2-hydroxy-3-(1H-tetrazol-1-yl)propyl)pyridin-3-yl)(4-fluorophenyl)methanone] |  |  |  | 80 to 100 | ≤ 0.5
7 | CCOC(=O)/C=C/c1ccc(C(F)(F)C(O)(Cn2cnnn2)c2ccc(F)cc2F)nc1 (stereo not drawn) [Compound 4, (E)-Ethyl 3-(6-(2-(2,4-difluorophenyl)-1,1-difluoro-2-hydroxy-3-(1H-tetrazol-1-yl)propyl)pyridin-3-yl)acrylate] |  | ≤ 0.016 |  |  | ≤ 0.5
8 | OC(Cn1cnnn1)(c1ccc(F)cc1F)C(F)(F)c1ccc(/C=C/COCC(F)(F)F)cn1 (stereo not drawn) [Compound 6, (E)-2-(2,4-Difluorophenyl)-1,1-difluoro-3-(1H-tetrazol-1-yl)-1-(5-(3-(2,2,2-trifluoroethoxy)prop-1-en-1-yl)pyridin-2-yl)propan-2-ol] |  | ≤ 0.016 |  | < 40 | ≤ 0.5
9 | N#Cc1ccc(OCc2ccc(C(F)(F)C(O)(Cn3cnnn3)c3ccc(F)cc3F)nc2)cc1 (stereo not drawn) [Compound 79, 4-((6-(2-(2,4-Difluorophenyl)-1,1-difluoro-2-hydroxy-3-(1H-tetrazol-1-yl)propyl)pyridin-3-yl)methoxy)benzonitrile] |  |  |  | 80 to 100 | ≤ 0.5
10 | OC(Cn1cnnn1)(c1ccc(F)cc1F)C(F)(F)c1ccc(C2CC2)cn1 (stereo not drawn) [Compound 18, 1-(5-Cyclopropylpyridin-2-yl)-2-(2,4-difluorophenyl)-1,1-difluoro-3-(1H-tetrazol-1-yl)propan-2-ol] |  |  |  | 80 to 100 | ≤ 0.5
11 | OC(Cn1cnnn1)(c1ccc(Cl)cc1F)C(F)(F)c1ccc(F)cn1 (stereo not drawn) [Compound 27, 2-(4-Chloro-2-fluorophenyl)-1,1-difluoro-1-(5-fluoropyridin-2-yl)-3-(1H-tetrazol-1-yl)propan-2-ol] |  |  |  | 80 to 100 | 1.5 (≈ 3.87 µM)
12 | N#Cc1ccc(C(F)(F)c2ccc(C(F)(F)C(O)(Cn3cnnn3)c3ccc(F)cc3F)nc2)cc1 (stereo not drawn) [Compound 103, 4-((6-(2-(2,4-difluorophenyl)-1,1-difluoro-2-hydroxy-3-(1H-tetrazol-1-yl)propyl)pyridin-3-yl)difluoromethyl)benzonitrile] |  |  |  | 80 to 100 | 1.5 to 4 (≈ 2.97 to 7.93 µM)
13 | OC(Cn1cnnn1)(c1ccc(F)cc1F)C(F)(F)c1ccc(Cc2ccc(OC(F)(F)F)cc2)cn1 (stereo not drawn) [Compound 76, 2-(2,4-Difluorophenyl)-1,1-difluoro-3-(1H-tetrazol-1-yl)-1-(5-(4-(trifluoromethoxy)benzyl)pyridin-2-yl)propan-2-ol] |  |  |  | 80 to 100 | ≤ 0.5
14 | OC(Cn1cnnn1)(c1ccc(F)cc1F)C(F)(F)c1ccc(F)cn1 (stereo not drawn) [Compound 10, 2-(2,4-Difluorophenyl)-1,1-difluoro-1-(5-fluoropyridin-2-yl)-3-(1H-tetrazol-1-yl)propan-2-ol] |  |  |  | 80 to 100 | 1.5 (≈ 4.04 µM)
15 | OC(Cc1cnco1)(c1ccc(F)cc1F)C(F)(F)c1ccc(Br)cn1 (stereo not drawn) [Compound 83, 1-(5-Bromopyridin-2-yl)-2-(2,4-difluorophenyl)-1,1-difluoro-3-(oxazol-5-yl)propan-2-ol] |  |  |  | 80 to 100 | ≤ 0.5
16 | COc1ccc(-c2ccc(C(F)(F)C(O)(Cn3cnnn3)c3ccc(F)cc3F)nc2)s1 (stereo not drawn) [Compound 32, 2-(2,4-Difluorophenyl)-1,1-difluoro-1-(5-(5-methoxythiophen-2-yl)pyridin-2-yl)-3-(1H-tetrazol-1-yl)propan-2-ol] |  |  |  | 40 to 59 | ≤ 0.5
17 | CCOC/C=C\c1ccc(C(F)(F)C(O)(Cn2cnnn2)c2ccc(F)cc2F)nc1 (stereo not drawn) [Compound 52, (Z)-2-(2,4-Difluorophenyl)-1-(5-(3-ethoxyprop-1-en-1-yl)pyridin-2-yl)-1,1-difluoro-3-(1H-tetrazol-1-yl)propan-2-ol] |  |  |  | < 40 | ≤ 0.5
18 | OC(Cn1cnnn1)(c1ccc(F)cc1F)C(F)(F)c1ccc(CC2CC2)cn1 (stereo not drawn) [Compound 59, 1-(5-(Cyclopropylmethyl)pyridin-2-yl)-2-(2,4-difluorophenyl)-1,1-difluoro-3-(1H-tetrazol-1-yl)propan-2-ol] |  |  |  | 80 to 100 | ≤ 0.5
19 | N#Cc1ccc(OCc2ccc(C(F)(F)C(O)(Cn3cnnn3)c3ccc(F)cc3F)nc2)c(F)c1 (stereo not drawn) [Compound 88, 4-((6-(2-(2,4-difluorophenyl)-1,1-difluoro-2-hydroxy-3-(1H-tetrazol-1-yl)propyl)pyridin-3-yl)methoxy)-3-fluorobenzonitrile] |  |  |  | 80 to 100 | ≤ 0.5
20 | OC(Cn1cnnn1)(c1ccc(F)cc1F)C(F)(F)c1ccc(-c2ccncc2)cn1 (stereo not drawn) [Compound 96, 1-([3,4′-bipyridin]-6-yl)-2-(2,4-difluorophenyl)-1,1-difluoro-3-(1H-tetrazol-1-yl)propan-2-ol] |  |  |  | 60 to 79 | 1.5 to 4 (≈ 3.49 to 9.29 µM)
